29 compounds from patent US9586931B2 (Merck Sharp & Dohme Corp., priority 2012, dated 2017) can be followed below.

“And” between values parts separate entries of the source, which are not always exact repeats. Identical values can stand only once.

This assay concerns the target T1, recombinant human GST-Syk (Homo sapiens, UniProt P43405).
T1 construct: purchased Carna Biosciences 08-176
In words: Homogeneous Time-Resolved Fluorescence (HTRF) assay for the recombinant human Syk enzyme. As to conditions: recombinant human GST-Syk 5 pM, ATP 25 μM, 10-dose titration 10 μM to 0.508 nM; read-out: rhSYK Activity IC50. The assay is classed as biochemical. The gist of the method: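 Detection used time-resolved fluorescence 30 min after adding a quench mix (40 mM EDTA, 15 mM Tris pH 7.5, 0.01% Tween 20) containing 2 nM Europium anti-pTyr antibody and 70 nM streptavidin-APC. This followed 45 min of room-temperature peptide phosphorylation by recombinant GST-tagged human Syk.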
On the technique in general: In TR-FRET formats the signal depends on donor and acceptor labels being close together.
As for `Cc1cc(Nc2cc(OCCO)ccn2)nc(-c2cn(C(C)c3ccc(C(=O)O)cc3)nn2)c1` (centres unmarked) [Example 2.4, 4-{1-[4-(6-{[4-(2-hydroxyethoxy)pyridin-2-yl]amino}-4-methylpyridin-2-yl)-1H-1,2,3-triazol-1-yl]ethyl}benzoic acid], the IC50 (usually the point on the concentration scale where inhibition reaches its midpoint) worked out at 28.1 nM. Take `COc1nc(Nc2cc(C)cc(-c3cn(CC(C)(O)C(C)(C)O)nn3)c2)ncc1Cl` (centres unmarked) [Example 21.16, 1-(4-{3-[(5-chloro-4-methoxypyrimidin-2-yl)amino]-5-methylphenyl}-1H-1,2,3-triazol-1-yl)-2,3-dimethylbutane-2,3-diol]: the IC50 is 50.6 nM. Then `Cc1cc(Nc2cc(C(F)(F)F)ccn2)nc(-c2cn(C(C)C(=O)NCCc3cccc4ccccc34)nn2)c1` (centres unmarked) [Example 1.44, 2-[4-(4-methyl-6-{[4-(trifluoromethyl)pyridin-2-yl]amino}pyridin-2-yl)-1H-1,2,3-triazol-1-yl]-N-(2-naphthalen-1-ylethyl)propanamide], with 626 nM; and `Cc1cc(Nc2cc(C(F)(F)F)ccn2)nc(-c2cn(C[C@H](O)CC(N)=O)nn2)c1` [Example 12.1], with 14.8 nM; and `Cc1cc(Nc2cc(C(F)(F)F)ccn2)nc(-c2cn(CC(=O)O)nn2)c1` [Example 5.88, [4-(4-methyl-6-{[4-(trifluoromethyl)pyridin-2-yl]amino}pyridin-2-yl)-1H-1,2,3-triazol-1-yl]acetic acid], with 52.9 nM. `Cc1cc(Nc2cc(C(F)(F)F)ccn2)nc(-c2cn(CC(C)(O)C(=O)O)nn2)c1` (centres unmarked) [Example 4.18, 2-hydroxy-2-methyl-3-[4-(4-methyl-6-{[4-(trifluoromethyl)pyridin-2-yl]amino}pyridin-2-yl)-1H-1,2,3-triazol-1-yl]propanoic acid]: the IC50 stood at 26.6 nM. Consider `Cc1cc(Nc2nccc(C(F)(F)F)n2)cc(-n2cc(CCC(=O)O)nn2)c1` [Example 15.14, 3-[1-(3-methyl-5-{[4-(trifluoromethyl)pyrimidin-2-yl]amino}phenyl)-1H-1,2,3-triazol-4-yl]propanoic acid], for which the IC50 came to 79.6 nM. Then `Cc1cc(Nc2nccc(C(F)(F)F)n2)cc(-n2cc([C@@]3(O)CC[C@H](C(=O)O)C(C)(C)C3)nn2)c1` [Example 15.9, (1S,4R)-4-hydroxy-2,2-dimethyl-4-[1-(3-methyl-5-{[4-(trifluoromethyl)pyrimidin-2-yl]amino}phenyl)-1H-1,2,3-triazol-4-yl]cyclohexanecarboxylic acid], with 8.1 nM; and `Cc1cc(Nc2cc(C(F)(F)F)ccn2)nc(-c2cn(C3CCC(C(=O)O)C(C)(C)C3)nn2)c1` (single isomer, unassigned) [Example 3.6, (R or S) 2,2-dimethyl-4-[4-(4-methyl-6-{[4-(trifluoromethyl)pyridin-2-yl]amino}pyridin-2-yl)-1H-1,2,3-triazol-1-yl]cyclohexanecarboxylic acid], with 3.5 nM. Turning to `Cc1cc(Nc2nccc(C(F)F)n2)cc(-c2cn(C3CCCCC3(C)O)nn2)c1` (single isomer, unassigned) [Example 7.19, 2-[4-(3-{[4-(difluoromethyl)pyrimidin-2-yl]amino}-5-methylphenyl)-1H-1,2,3-triazol-1-yl]-1-methylcyclohexanol], the IC50 was 16.2 nM.

As to `Cc1cc(Nc2cc(C(F)F)ccn2)nc(-c2cn(C3CCCC(O)C3O)nn2)c1` (centres unmarked) [Example 21.38, 3-(4-(6-((4-(difluoromethyl)pyridin-2-yl)amino)-4-methylpyridin-2-yl)-1H-1,2,3-triazol-1-yl)cyclohexane-1,2-diol], the IC50 is 3.7 nM.

On to `Cc1cc(Nc2cc(C(F)(F)F)ccn2)nc(-c2cn(C(C)C(=O)NCCc3ccccc3Oc3ccccc3)nn2)c1` (centres unmarked) [Example 1.42, 2-[4-(4-methyl-6-{[4-(trifluoromethyl)pyridin-2-yl]amino}pyridin-2-yl)-1H-1,2,3-triazol-1-yl]-N-[2-(2-phenoxyphenyl)ethyl]propanamide], for which the IC50 is 912 nM.

Regarding `Cc1cc(Nc2cc(C(F)(F)F)ccn2)nc(-c2cn(C[C@H](O)CO)nn2)c1` [Example 5.7, (2S)-3-[4-(4-methyl-6-{[4-(trifluoromethyl)pyridin-2-yl]amino}pyridin-2-yl)-1H-1,2,3-triazol-1-yl]propane-1,2-diol], the IC50 is 7.3 nM and 3.4 nM.

In the case of `Cc1cc(Nc2cc(C(F)(F)F)ccn2)nc(-c2cn(CC(O)c3ccc(C(=O)O)cc3)nn2)c1` (centres unmarked) [Example 3.18, 4-{1-hydroxy-2-[4-(4-methyl-6-{[4-(trifluoromethyl)pyridin-2-yl]amino}pyridin-2-yl)-1H-1,2,3-triazol-1-yl]ethyl}benzoic acid], the IC50 was found to be 1.9 nM. As to `Cc1cc(Nc2nccc(C(F)(F)F)n2)cc(-c2cn(CC3(O)CCC(C(=O)O)C(C)(C)C3)nn2)c1` (single isomer, unassigned) [Example 3.2, (R or S) 4-hydroxy-2,2-dimethyl-4-{[4-(3-methyl-5-{[4-(trifluoromethyl)pyrimidin-2-yl]amino}phenyl)-1H-1,2,3-triazol-1-yl]methyl}cyclohexanecarboxylic acid], the half-inhibitory concentration (IC50) stood at 46.8 nM. Then `Cc1cc(Nc2cc(C(F)(F)F)ccn2)nc(-c2cn(C(C)CO)nn2)c1` (centres unmarked) [Example 18.1, 2-[4-(4-Methyl-6-{[4-(trifluoromethyl)pyridin-2-yl]amino}pyridin-2-yl)-1H-1,2,3-triazol-1-yl]propan-1-ol], with 2.2 nM; and `Cc1cc(Nc2nccc(C(F)(F)F)n2)cc(-c2cn(CCC(N)=O)nn2)c1` [Example 5.75, 3-[4-(3-methyl-5-{[4-(trifluoromethyl)pyrimidin-2-yl]amino}phenyl)-1H-1,2,3-triazol-1-yl]propanamide], with 31.6 nM; and `Cc1cc(Nc2cc(C(F)(F)F)ccn2)nc(-c2cn(C[C@H]3CNC(=O)O3)nn2)c1` [Example 5.102, (5R)-5-{[4-(4-methyl-6-{[4-(trifluoromethyl)pyridin-2-yl]amino}pyridin-2-yl)-1H-1,2,3-triazol-1-yl]methyl}-1,3-oxazolidin-2-one], with 1.1 nM. Turning to `Cc1cc(Nc2cc(C(F)(F)F)ccn2)nc(-c2cn(C3CCCC(O)C3O)nn2)c1` (centres unmarked) [Example 10.11, 3-[4-(4-methyl-6-{[4-(trifluoromethyl)pyridin-2-yl]amino}pyridin-2-yl)-1H-1,2,3-triazol-1-yl]cyclohexane-1,2-diol], the IC50 came to 3.3 nM.

With `CCOc1ccnc(Nc2cc(C)cc(-c3cn(C(C)c4ccc(C(=O)O)cc4)nn3)n2)c1` (centres unmarked) [Example 2.9, 4-[1-(4-{6-[(4-ethoxypyridin-2-yl)amino]-4-methylpyridin-2-yl}-1H-1,2,3-triazol-1-yl)ethyl]benzoic acid], the IC50 worked out at 58.7 nM. `Cc1cc(Nc2cc(C(F)(F)F)ccn2)nc(-c2cn([C@@H](C)C(=O)N3CCC[C@H]3C(N)=O)nn2)c1` [Example 1.20, 1-{(2S)-2-[4-(4-methyl-6-{[4-(trifluoromethyl)pyridin-2-yl]amino}pyridin-2-yl)-1H-1,2,3-triazol-1-yl]propanoyl}prolinamide]: the IC50 was 87.2 nM. On to `Cc1cc(Nc2cc(C(F)(F)F)ccn2)nc(-c2cn(C(C(N)=O)c3ccc(F)cc3)nn2)c1` (centres unmarked) [Example 1.17, 2-(4-fluorophenyl)-2-[4-(4-methyl-6-{[4-(trifluoromethyl)pyridin-2-yl]amino}pyridin-2-yl)-1H-1,2,3-triazol-1-yl]acetamide], for which the IC50 turned out to be 4.4 nM.

Consider `Cc1cc(Nc2cc(OC3CCCCC3)ccn2)nc(-c2cn(C(C)c3ccc(C(=O)O)cc3)nn2)c1` (centres unmarked) [Example 2.6, 4-{1-[4-(6-{[4-(cyclohexyloxy)pyridin-2-yl]amino}-4-methylpyridin-2-yl)-1H-1,2,3-triazol-1-yl]ethyl}benzoic acid], for which the IC50 was determined as 26.6 nM.

Take `Cc1cc(Nc2cc(C(F)(F)F)ccn2)nc(-c2cn(C3CCCCC(O)C3O)nn2)c1` (single isomer, unassigned) [Example 10.5, 3-[4-(4-methyl-6-{[4-(trifluoromethyl)pyridin-2-yl]amino}pyridin-2-yl)-1H-1,2,3-triazol-1-yl]cycloheptane-1,2-diol]: the IC50 amounted to 2.6 nM. As to `Cc1cc(Nc2cc(OC3CCOC3)ccn2)nc(-c2cn(C(C)c3ccc(C(=O)O)cc3)nn2)c1` (centres unmarked) [Example 2.5, 4-{1-[4-(4-methyl-6-{[4-(tetrahydrofuran-3-yloxy)pyridin-2-yl]amino}pyridin-2-yl)-1H-1,2,3-triazol-1-yl]ethyl}benzoic acid], the IC50 was determined as 132 nM. For `Cc1cc(Nc2nccc(C(F)(F)F)n2)cc(-c2cn(C(C)C(O)CC#N)nn2)c1` (single isomer, unassigned) [Example 4.9, 3-hydroxy-4-[4-(3-methyl-5-{[4-(trifluoromethyl)pyrimidin-2-yl]amino}phenyl)-1H-1,2,3-triazol-1-yl]pentanenitrile], the half-maximal inhibitory concentration (IC50) stood at 25.2 nM. For the compound `Cc1cc(Nc2nccc(C(F)F)n2)cc(-c2cn(CC3(C)CNC(=O)O3)nn2)c1` (single isomer, unassigned) [Example 7.31, 5-{[4-(3-{[4-(difluoromethyl)pyrimidin-2-yl]amino}-5-methylphenyl)-1H-1,2,3-triazol-1-yl]methyl}-5-methyl-1,3-oxazolidin-2-one], the IC50 amounted to 8 nM. Consider `Cc1cc(Nc2nccc(C(F)(F)F)n2)cc(-c2cn(CC(=O)N3CCOCC3(C)C)nn2)c1` [Example 5.66, N-(3-{1-[2-(3,3-dimethylmorpholin-4-yl)-2-oxoethyl]-1H-1,2,3-triazol-4-yl}-5-methylphenyl)-4-(trifluoromethyl)pyrimidin-2-amine], for which the IC50 was found to be 152 nM. In the case of `CCOC(=O)Cn1cc(-c2cc(C)cc(Nc3cc(C(F)(F)F)ccn3)n2)nn1` [Example 5.100, ethyl [4-(4-methyl-6-{[4-(trifluoromethyl)pyridin-2-yl]amino}pyridin-2-yl)-1H-1,2,3-triazol-1-yl]acetate], the IC50 was 27.7 nM.
